Reference: patent US20200206198A1, “CFTR CHANNEL ACTIVATOR FOR USE IN THE TREATMENT AND/OR PREVENTION OF GLUTEN SENSITIVITY CONDITIONS” (priority 2017, published 2020)
Where a SMILES comes first, the peptide text is derived from it. [ ]: non-standard residue; d: D form. The star is where a group is joined. DON = [N-]=[N+]=CC(=O)CC[C@H](N)C(=O)O; Cbz = O=C(OCc1ccccc1)*

Experiments:
CFTR [1] = target: T1, CFTR (Homo sapiens, UniProt P13569); assay: CFTR channel function in intestinal epithelial cells (forskolin-induced Isc in Ussing chambers; SPQ iodide efflux); type: cell-based; conditions: 20 μg/ml peptide; intestinal epithelial cells (Caco-2, T84)
T1 construct: Immunoprecipitations of endogenous proteins were performed on 500 μg of lysates from Caco-2 cells; host or cells: Caco-2, T84
Procedure: Human colon adenocarcinoma-derived Caco-2 and T84 cells (Barone, M. V. et al. 2014; Luciani, A. et al. 2010) were obtained from the ATCC. Cells were maintained in T25 flask in Modified Eagle Medium (MEM) for Caco-2, or Ham's F12+DMEM (1:1) for T84, supplemented with 10% fetal bovine serum (FBS), 2 mM Glutamine+1% Non Essential Amino Acids (NEAA) and the antibiotics penicillin\streptomycin (100 units/ml) (all reagents from Lonza). Caco-2 cells were grown in Transwells (Corning, 3470 or 3460) under the normal condition. Briefly, 8×10^4 or 5×10^5 cells were seeded in 6.5-mm diameter or 12-mm diameter, respectively, and grown until the RT reached 800 to 1,200 Ω·cm^2. Transwells with a pore size of 0.4 μm were used. Medium in both the apical and baso lateral chambers was changed every other day. Cells were treated with 20 μg/ml of either with the α-gliadin peptide comprising the P31-43 amino acid sequence of α-gliadin LGQQQPFPPQQPY (SEQ ID 1) (below referred to as P31-43), which is known to induce an enterocyte stress response (Meresse, B. et al.2009; Barone, M. V. et al. 2014; Luciani, A. et al. 2010), the T-cell activating α-gliadin peptide comprising the P57-68 amino acid sequence of α-gliadin (QLQPFPQPQLPY SEQ ID 2)) (below referred to as P57-68) (Maiuri, L., et al. 2003; Meresse, B. et al.2009; 30 Barone, M. V. et al. 2014), or the scrambled GAVAAVGVVAGA (SEQ ID 3) control peptide (below referred to as PGAV), or with different modified P31-43, either biotin-tagged or not, for different time points (from 1 h short challenge up to 24 h). Cells were also treated with 50 or 100 5 μg/ml of P57-68 or PGAV peptides for 3 h.
Caco-2 or T84 cells were also treated with: CFTR potentiators VX-770 (Ivacaftor) (10 μM) or VX-532 (20 μM) (Selleck chemicals) or Genistein (10 μM) (Verkman, A. S. et al. 2005; Jih, K. Y. et al. 2013) (Sigma-Aldrich) or in presence or absence of CFTR inhibitor172 (CFTRinh172, 20 μM).
Human colon adenocarcinoma-derived Caco-2 and T84 cells were obtained from the ATCC. Cells were maintained in T25 flask in Modified Eagle Medium (MEM) for Caco-2, or Ham's F12+DMEM (1:1) for T84, supplemented with 10% fetal bovine serum (FBS), 2 mM Glutamine+1% Non Essential Amino Acids (NEAA) and the antibiotics penicillin\streptomycin (100 units/ml) (all reagents from Lonza) (Luciani, A., et al. 2010. Cells were grown in Transwells (Corning, 3470 or 3460) under the normal condition (Luciani, A., et al. 2012). Briefly, 8×10^4 or 5×10^5 cells were seeded in 6.5-mm diameter or 12-mm diameter, respectively, and grown until the RT reached 800 to 1,200 Ω·cm2. Transwells with a pore size of 0.4 μm were used. Medium in both the apical and basolateral chambers was changed every other day. […]

[2] = test system: recombinant human NBD1 (rhNBD1); assay: Surface plasmon resonance peptide-protein interaction; type: binding; conditions: rhNBD1 immobilized on chip, different peptide concentrations
Procedure: Peptide-protein interactions were studied using a Biacore™ T100 (GE Healthcare) instrument. hrNBD1 domain or the indicated biotinylated peptides were immobilized by thiol coupling on a CMS (series S) sensor chip to a final density of 2000 resonance units (RU) or by biotin-streptavidin capture on a SA (series S) sensor chip to a final density of 250 RU, respectively. A flow cell with no immobilized protein or peptide was used as control. Binding analysis was carried out at 20° C. in a running buffer consisting of 10 mM HEPES, pH 7.4, 150 mM NaCl, 0.05% (v/v) Tween-20, 2 mM ATP, 5 mM MgCl2, 1 mM DTT applying a flow rate of 20 μl/min. For each experiment a Biacore™ method program was used. It included a series of three start up injections (running buffer), zero control (running buffer) and different concentrations of ligand. […] Each sensorgram (time-course of the surface plasmon resonance signal) was corrected for the response obtained in the control flow cell and normalized to baseline. Data were analysed using the 2.0.3 BIAevaluation software (GE Healthcare). At least three independent experiments for each analysis were performed.
FIG. 2: a, Protein-Protein docking and Molecular Dynamics of P31-43 (violet) bound to NBD1 (orange). Left side: general view of P31-43 and NBD1 interaction. Upper right: detailed interaction pattern, highlighting the most important amino acids. Lower right: in silico NBD1/P31-43 complex compared to the original crystallographic positions of Tip 401 and ATP. b, Graphical view of the in silico sampling percentage of P31-43 against NBD1/NBD2 (left 10 panel), and of P31-43/4QA (4QA) against NBD1 (right panel). c-d, Surface plasmon resonance (SPR) analysis of rhNBD1 binding to P31-43 and P57-68 biotinylated peptides immobilized on SA sensor chip (c) and of increasing concentrations of P31-43 and P57-68 peptides 15 on rhNBD1 covalently bound to the CMS sensor chip (d).

CFTR [3] = target: T1, CFTR; assay: Co-immunoprecipitation of biotinylated peptides with CFTR in Caco-2 cells; type: cell-based; conditions: 1 h with biotinylated peptides
Procedure: Human colon adenocarcinoma-derived Caco-2 and T84 cells were obtained from the ATCC. Cells were maintained in T25 flask in Modified Eagle Medium (MEM) for Caco-2, or Ham's F12+DMEM (1:1) for T84, supplemented with 10% fetal bovine serum (FBS), 2 mM Glutamine+1% Non Essential Amino Acids (NEAA) and the antibiotics penicillin\streptomycin (100 units/ml) (all reagents from Lonza) (Luciani, A., et al. 2010. Cells were grown in Transwells (Corning, 3470 or 3460) under the normal condition (Luciani, A., et al. 2012). Briefly, 8×10^4 or 5×10^5 cells were seeded in 6.5-mm diameter or 12-mm diameter, respectively, and grown until the RT reached 800 to 1,200 Ω·cm2. Transwells with a pore size of 0.4 μm were used. Medium in both the apical and basolateral chambers was changed every other day. […] Cells were also treated with 50 or 100 μg/ml of P57-68 or PGAV peptides for 3 h. Caco-2 or T84 cells were also treated with: CFTR potentiators VX-770 (10 μM) or VX-532 (20 μM) (Selleck chemicals) or Genistein (10 μM) (Sigma-Aldrich) or in presence or absence of CFTR inhibitor172 (CFTRinh172, 20 μM) or 3-methyl-adenine (3-MA, 20 μM) (Calbiochem), Z-DON (20 nM, Zedira) or BAPTA-AM (10 μM, Calbiochem).
The separation of endosomal fractions was performed as described^9 from treated and untreated cells. Protein of endosomal fraction were resolved by SDS-Page and blotted with primary antibodies against Rab-5(Abcam 18211) 1:500, Rab-7(Abcam 77993) 1:500, EEA-1 (Abcam 2900) 1:500, TG2 or CFTR. EEA-1 was used as early endosome marker. For detection of complex with biotnylated-P31-43, the beads were resolved in non-reducing and non-denaturating conditions, and then blotted with Streptavidin-HRP (Sigma S2438) 1:3000 or anti-biotin (Abcam ab2103) 1:2500.

TG2 = target: T2, TG2 (Homo sapiens, UniProt P21980); assay: TG2 interaction and TG2 activity in Caco-2 cells; type: cell-based; conditions: Caco-2 cells
T2 construct: Immunoprecipitations of endogenous proteins were performed on 500 μg of lysates from Caco-2 cells; host or cells: Caco-2
T2 sequence (P21980 1-687): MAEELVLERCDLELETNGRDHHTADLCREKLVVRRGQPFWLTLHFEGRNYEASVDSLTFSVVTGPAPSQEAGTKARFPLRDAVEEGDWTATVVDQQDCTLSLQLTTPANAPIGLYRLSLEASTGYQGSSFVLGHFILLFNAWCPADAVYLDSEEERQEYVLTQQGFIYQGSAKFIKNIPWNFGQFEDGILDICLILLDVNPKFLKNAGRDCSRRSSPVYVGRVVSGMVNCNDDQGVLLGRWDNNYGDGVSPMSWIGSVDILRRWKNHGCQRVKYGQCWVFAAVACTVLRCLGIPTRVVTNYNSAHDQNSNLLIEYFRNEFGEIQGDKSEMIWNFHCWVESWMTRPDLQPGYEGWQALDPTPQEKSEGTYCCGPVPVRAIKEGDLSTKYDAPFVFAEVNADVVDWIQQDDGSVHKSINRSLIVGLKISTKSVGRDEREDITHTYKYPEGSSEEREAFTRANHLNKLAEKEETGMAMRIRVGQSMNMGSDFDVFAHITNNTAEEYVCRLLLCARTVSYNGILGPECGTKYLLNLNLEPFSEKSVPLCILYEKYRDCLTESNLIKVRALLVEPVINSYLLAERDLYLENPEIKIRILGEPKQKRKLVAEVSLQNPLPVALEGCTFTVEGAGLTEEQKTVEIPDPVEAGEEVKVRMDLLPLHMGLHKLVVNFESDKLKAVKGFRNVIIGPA
Procedure: Human colon adenocarcinoma-derived Caco-2 and T84 cells were obtained from the ATCC. Cells were maintained in T25 flask in Modified Eagle Medium (MEM) for Caco-2, or Ham's F12+DMEM (1:1) for T84, supplemented with 10% fetal bovine serum (FBS), 2 mM Glutamine+1% Non Essential Amino Acids (NEAA) and the antibiotics penicillin\streptomycin (100 units/ml) (all reagents from Lonza) (Luciani, A., et al. 2010. Cells were grown in Transwells (Corning, 3470 or 3460) under the normal condition (Luciani, A., et al. 2012). Briefly, 8×10^4 or 5×10^5 cells were seeded in 6.5-mm diameter or 12-mm diameter, respectively, and grown until the RT reached 800 to 1,200 Ω·cm2. Transwells with a pore size of 0.4 μm were used. Medium in both the apical and basolateral chambers was changed every other day. Cells were treated with 20 μg/ml of either α-gliadin peptide P31-43 or […] or scrambled PGAV or modified P31-43 either biotin-tagged or not, for different time point (from 1 h short challenge up to 24 h). Cells were also treated with 50 or 100 μg/ml of P57-68 or PGAV peptides for 3 h. Caco-2 or T84 cells were also treated with: CFTR potentiators VX-770 (10 μM) or VX-532 (20 μM) (Selleck chemicals) or Genistein (10 μM) (Sigma-Aldrich) or in presence or absence of CFTR inhibitor172 (CFTRinh172, 20 μM) or 3-methyl-adenine (3-MA, 20 μM) (Calbiochem), Z-DON (20 nM, Zedira) or BAPTA-AM (10 μM, Calbiochem).
The whole lysate or membrane fraction proteins of cell lines and mice intestine homogenates were obtained from treated and untreated cells or mice as described. The equal amount of protein were resolved by SDS-PAGE gel and blotted with antibodies against: SQSTM1, (Sigma Aldrich, 108k4767) 1:1000, PPARγ (Santa Cruz Biotechnology, sc7273) 1:500, BECN1 (Abcam, ab58878) 1:1000, CFTR clone M3A7 (Abcam, ab4067) 1:500, phospho-ERK1/2 (php42/44, Cell Signaling Technology, #91101) 1:1000, UVRAG (Santa Cruz Biotechnology sc8215) 1:1000, NHERF-1 (BD, 611161) 1:1000, EZRIN (BD, 610603) 1:1000, hVps34 (SigmaV9764) 1:300, biotin (Abcam, ab1227) 1:2000, PKAr2a (BD, 610625) 1:500, Ubiquitin (Cell Signaling clone P4D1, #3936) 1:1000, CHIP (Calbiochem PC711) 1:500, Caspase-1 p10 (M-20) (Santa Cruz Biotechnology, sc-514) 1:200, NLRP3 (Abcam, ab4207), 1:500, IDO1 (monoclonal; cv152) 1:1000^[80], used as primary antibodies. Normalization was performed by probing the membrane with anti-β-actin (Cell Signaling, #4970) 1:1000, anti-Gapdh (Sigma-Aldrich, G8795) 1:1000 and anti-flottilin (Abcam ab15148) 1:1000 antibodies. Immunoprecipitations of endogenous proteins were performed on 500 μg of lysates from Caco-2 cells. The proteins were incubated for 12-18 h at 4° C. with 10 ug\ml of specific antibody followed by the addition of Protein A/G-agarose beads for 4 h at 4° C. The beads were then washed three times with lysis buffer and Laemmli's sample buffer was added to the samples. The membranes were then blotted with: CFTR clone CF3 (Abcam, ab2784) 1:1000, TG2 (clone CUB7402; NeoMarkers) 1:1000, CHIP (Calbiochem PC711) 1:500, Ubiquitin (Cell Signaling clone P4D1 3936), isopeptide (Abcam 422) 1:1000, PKAR2 (BD 610625) 1:500.
For detection of complex with biotnylated-P31-43 or immune-complex of glutamime-lysine bonds, the beads were resolved in non-reducing and non-denaturating conditions, and then blotted with Streptavidin-HRP (Sigma 52438) 1:3000 or anti-biotin (Abcam ab2103) 1:2500 and anti-isopeptide (Abcam 422) 1:1000.
TG2 enzymatic activity in Caco-2, treated as described above, was detected: 1) by incubating unfixed sections with biotin-mono-dansylcadaverine (MDC, 10 mM, Molecular Probe) for 1 h at room temperature and then stained with Alexa-fluor488-Streptavidin, as previously described (JI2008/2009) or 2) or by incorporation of 5(biotinamido)pentylamines (BAP) into protein substrates. For BAP-incorporation, 2 mM BAP (Soltec Ventures, B110) were directly added into the medium together with the indicated treatments. […]

T1 sequence (P13569 whole entry): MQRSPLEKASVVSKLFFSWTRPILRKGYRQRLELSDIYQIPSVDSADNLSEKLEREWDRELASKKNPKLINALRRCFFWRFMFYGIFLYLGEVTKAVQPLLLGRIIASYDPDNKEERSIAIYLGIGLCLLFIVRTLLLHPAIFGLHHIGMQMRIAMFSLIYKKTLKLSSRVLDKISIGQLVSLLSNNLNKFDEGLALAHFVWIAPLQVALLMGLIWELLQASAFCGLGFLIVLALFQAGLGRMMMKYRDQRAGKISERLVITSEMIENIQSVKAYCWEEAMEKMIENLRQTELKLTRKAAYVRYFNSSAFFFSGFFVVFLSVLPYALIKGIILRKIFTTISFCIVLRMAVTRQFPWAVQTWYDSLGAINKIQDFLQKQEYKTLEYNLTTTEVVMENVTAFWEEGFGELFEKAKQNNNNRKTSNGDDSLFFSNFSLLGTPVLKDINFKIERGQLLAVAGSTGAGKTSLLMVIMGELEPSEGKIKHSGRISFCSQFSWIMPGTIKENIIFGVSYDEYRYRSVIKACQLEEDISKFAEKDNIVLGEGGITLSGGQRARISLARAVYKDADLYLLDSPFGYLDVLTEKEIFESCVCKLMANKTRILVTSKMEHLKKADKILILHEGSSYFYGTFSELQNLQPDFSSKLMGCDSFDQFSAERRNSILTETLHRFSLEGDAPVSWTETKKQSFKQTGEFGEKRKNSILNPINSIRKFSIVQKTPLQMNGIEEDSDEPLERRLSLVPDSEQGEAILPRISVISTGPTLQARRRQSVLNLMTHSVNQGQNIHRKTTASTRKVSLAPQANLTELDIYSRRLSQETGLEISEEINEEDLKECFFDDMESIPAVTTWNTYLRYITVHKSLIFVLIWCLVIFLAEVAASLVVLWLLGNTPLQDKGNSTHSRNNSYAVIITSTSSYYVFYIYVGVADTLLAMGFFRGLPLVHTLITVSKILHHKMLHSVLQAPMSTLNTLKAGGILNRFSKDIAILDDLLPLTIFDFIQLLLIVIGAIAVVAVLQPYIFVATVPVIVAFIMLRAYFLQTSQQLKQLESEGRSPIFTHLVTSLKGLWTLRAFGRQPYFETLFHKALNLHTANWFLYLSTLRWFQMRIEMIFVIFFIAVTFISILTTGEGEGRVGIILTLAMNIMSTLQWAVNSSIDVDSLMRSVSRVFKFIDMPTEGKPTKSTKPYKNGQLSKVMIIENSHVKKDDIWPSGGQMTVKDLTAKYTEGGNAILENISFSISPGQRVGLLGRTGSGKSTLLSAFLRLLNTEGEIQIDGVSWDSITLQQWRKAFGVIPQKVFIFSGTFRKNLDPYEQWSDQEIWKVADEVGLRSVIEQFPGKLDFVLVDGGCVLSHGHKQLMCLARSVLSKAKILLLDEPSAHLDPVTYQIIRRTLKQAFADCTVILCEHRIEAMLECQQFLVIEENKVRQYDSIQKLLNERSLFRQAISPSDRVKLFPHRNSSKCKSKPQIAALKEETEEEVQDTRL

Compound	reduction of CFTR channel function in response to forskolin (CFTR [1])	SPR signal on immobilized rhNBD1 [2]	interaction (co-immunoprecipitation) with CFTR (CFTR [3])	interaction (co-immunoprecipitation) with CFTR (CFTR [3]; listed as Q4A)	effect on P31-43-induced interaction of TG2 and CFTR (TG2)
4QA: P31-43 with glutamines at residues 4, 5, 10 and 11 substituted with alanines, LGQAAPFPPAAPY (SEQ ID 4) (P31-43 sequence of alpha gliadin with glutamine residues at positions 4, 5, 10 and 11 substituted with alanines)	failed to interact with CFTR and to inhibit its function	failed to interact with NBD1	failed to interact with CFTR	did not co-immunoprecipitate with CFTR	
COC(=O)[C@H](CC(C)C)NC(=O)[C@@H]1CCCN1C(=O)[C@@H](NC(=O)[C@H](CCC(=O)C=[N+]=[N-])NC(=O)OCc1ccccc1)C(C)C [Z-DON] (Cbz-[DON]VPL-OMe)					prevented
P57-68: T-cell activating α-gliadin peptide QLQPFPQPQLPY (SEQ ID 2) (P57-68 sequence of alpha-gliadin)		failed to induce any signal			
CC(=O)OCOC(=O)CN(CC(=O)OCOC(C)=O)c1ccccc1OCCOc1ccccc1N(CC(=O)OCOC(C)=O)CC(=O)OCOC(C)=O [BAPTA-AM]					prevented
